# Data published in patent US7109243B2 (IRM LLC, priority 2003, dated 2006).
# Columns and labels:
# [1] = target: Cathepsin S (Homo sapiens, UniProt P25774); experiment: Cathepsin S inhibition assay (fluorogenic peptide substrate); format: biochemical; details: Table II, compounds of Formula I; read-out: Ki Cat. S
# Summary of the method: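 Ki values come from nonlinear fitting of inhibited hydrolysis rates, taking free and total inhibitor concentrations as equal. Rates measured as rising fluorescence at 380/450 nm after reaction start with 50 μM final acetyl-HPVK-aminocarbamoylcoumarin.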
# [2] = target: T1, Cathepsin K (Homo sapiens, UniProt P43235); experiment: Cathepsin K inhibition assay (fluorogenic peptide substrate); selectivity ratio vs cathepsin S; format: biochemical; details: ratio of cathepsin K inhibition constant to cathepsin S inhibition constant; Table II
# T1 sequence (P43235 115-329): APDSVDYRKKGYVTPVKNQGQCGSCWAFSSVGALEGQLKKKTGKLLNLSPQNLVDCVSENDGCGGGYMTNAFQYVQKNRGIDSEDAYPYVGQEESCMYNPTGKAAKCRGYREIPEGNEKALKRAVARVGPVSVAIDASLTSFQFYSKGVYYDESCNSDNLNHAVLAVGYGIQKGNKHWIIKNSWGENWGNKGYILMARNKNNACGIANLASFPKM
# Summary of the method: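 Inhibition constants for competitive inhibitors come from apparent values fitted to enzyme progress curves. Substrate, acetyl-Lys-His-Pro-Lys-aminocarbamoylcoumarin (40 μM final), starts the reaction; fluorescence rise read at 380 nm excitation, 450 nm emission. Selectivity ratio: other cathepsin constant over cathepsin S constant.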
# Cathepsin S, sequence (P25774 115-331, species assumed): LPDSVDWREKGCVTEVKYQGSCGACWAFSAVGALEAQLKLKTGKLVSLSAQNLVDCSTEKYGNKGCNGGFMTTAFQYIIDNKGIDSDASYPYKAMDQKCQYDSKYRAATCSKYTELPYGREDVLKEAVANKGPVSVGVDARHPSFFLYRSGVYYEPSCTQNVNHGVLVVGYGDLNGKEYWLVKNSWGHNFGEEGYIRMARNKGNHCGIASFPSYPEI
Ki [1] [nM],Selectivity for Cat. S over Cat. K [2],Structure (SMILES)
< 100,"+ (+, >10)","COc1ccc(NCCNC(=O)[C@H](CC2CCCCC2)NC(=O)c2cc(-c3ccc(OC)cc3)cs2)cc1 [Compound 191, (S)-4-(4-Methoxy-phenyl)-thiophene-2-carboxylic acid {2-cyclohexyl-1-[2-(4-methoxy-phenylamino)-ethylcarbamoyl]-ethyl}-amide]"
< 100,"+++ (+++, >1000)","COc1ccc(NCCNC(=O)[C@H](CC2CCCCC2)NC(=O)[C@@H](C)c2ccccc2)cc1 [Compound 192, N-{2-Cyclohexyl-1-(S)-[2-(4-methoxy-phenylamino)-ethylcarbamoyl]-ethyl}-2-(S)-phenyl-propionamide]"
< 100,"++ (++, >100)","COc1ccc(NCCNC(=O)[C@H](CC2CCCCC2)NC(=O)c2ccc(-c3cc(C(F)(F)F)ccc3Cl)o2)cc1 [Compound 193, (S)-5-(2-Chloro-5-trifluoromethyl-phenyl)-furan-2-carboxylic acid {2-cyclohexyl-1-[2-(4-methoxy-phenylamino)-ethylcarbamoyl]-ethyl}-amide]"
< 1000,"+ (+, >10)","O=C(N[C@@H](CC1CCCCC1)C(=O)NCCNc1ccc(OC(F)(F)F)cc1)c1ccc(-c2ccccc2Cl)cc1 [Compound 194, (S)-2′-Chloro-biphenyl-4-carboxylic acid {2-cyclohexyl-1-[2-(4-trifluoromethoxy-phenylamino)-ethylcarbamoyl]-ethyl}-amide]"
< 1000,"+ (+, >10)","O=C(N[C@@H](CC1CCCCC1)C(=O)NCCNc1ccc(OC(F)(F)F)cc1)c1ccc(-c2cccc(F)c2)cc1 [Compound 198, (S)-3′-Fluoro-biphenyl-4-carboxylic acid {2-cyclohexyl-1-[2-(4-trifluoromethoxy-phenylamino)-ethylcarbamoyl]-ethyl}-amide]"
< 1000,"++ (++, >100)","COc1ccc(NCCNC(=O)[C@H](CC2CCCCC2)NC(=O)c2cccc(CN)c2)cc1 [Compound 199, (S)-3-Aminomethyl-N-{2-cyclohexyl-1-[2-(4-methoxy-phenylamino)-ethylcarbamoyl]-ethyl}-benzamide]"
< 100,"+ (+, >10)","O=C(N[C@@H](CC1CCCCC1)C(=O)NCCNc1ccc(OC(F)(F)F)cc1)c1cccc(CN2CCOCC2)c1 [Compound 200, (S)-N-{2-Cyclohexyl-1-[2-(4-trifluoromethoxy-phenylamino)-ethylcarbamoyl]-ethyl}-3-morpholin-4-ylmethyl-benzamide]"
< 100,"++ (++, >100)","O=C(N[C@@H](CC1CCCCC1)C(=O)NCCNc1ccc(OC(F)(F)F)cc1)c1ccc(-c2ccccc2F)s1 [Compound 201, (S)-5-(2-Fluoro-phenyl)-thiophene-2-carboxylic acid {2-cyclohexyl-1-[2-(4-trifluoromethoxy-phenylamino)-ethylcarbamoyl]-ethyl}-amide]"
< 100,"+++ (+++, >1000)","COc1ccc(NCCNC(=O)[C@H](CCCC2CCCCC2)NC(=O)c2cccc(C)c2)cc1 [Compound 203, (S)-N-{4-Cyclohexyl-1-[2-(4-methoxy-phenylamino)-ethylcarbamoyl]-butyl}-3-methyl-benzamide]"
< 100,"++ (++, >100)","O=C(N[C@@H](CC1CCCCC1)C(=O)NCCNc1ccc(OC(F)(F)F)cc1)c1ccc(-c2ccc(C(F)(F)F)cc2)s1 [Compound 205, (S)-5-(4-Trifluoromethyl-phenyl)-thiophene-2-carboxylic acid {2-cyclohexyl-1-[2-(4-trifluoromethoxy-phenylamino)-ethylcarbamoyl]-ethyl}-amide]"
< 1000,"++ (++, >100)","COc1ccc(NCCNC(=O)[C@H](CCc2ccccc2)NC(=O)c2cccc(C)c2)cc1 [Compound 206, (S)-N-{1-[2-(4-Methoxy-phenylamino)-ethylcarbamoyl]-3-phenyl-propyl}-3-methyl-benzamide]"
< 1000,"++ (++, >100)","O=C(N[C@@H](CC1CCCCC1)C(=O)NCCNc1ccc(OC(F)(F)F)cc1)c1ccc(-c2ccc(OC(F)(F)F)cc2)s1 [Compound 207, (S)-5-(4-Trifluoromethoxy-phenyl)-thiophene-2-carboxylic acid {2-cyclohexyl-1-[2-(4-trifluoromethoxy-phenylamino)-ethylcarbamoyl]-ethyl}-amide]"
< 100,"+++ (+++, >1000)","COc1ccc(NCCNC(=O)[C@H](CC=Cc2ccccc2)NC(=O)c2cccc(C)c2)cc1 [Compound 208, (S)-N-{1-[2-(4-Methoxy-phenylamino)-ethylcarbamoyl]-4-phenyl-but-3-enyl}-3-methyl-benzamide]"
< 100,"+++ (+++, >1000)","O=C(N[C@@H](CC1CCCCC1)C(=O)NCCNc1ccc(OC(F)(F)F)cc1)c1ccc(-c2cccc(OC(F)(F)F)c2)s1 [Compound 209, (S)-5-(3-Trifluoromethoxy-phenyl)-thiophene-2-carboxylic acid {2-cyclohexyl-1-[2-(4-trifluoromethoxy-phenylamino)-ethylcarbamoyl]-ethyl}-amide]"
< 100,"++ (++, >100)","COc1ccccc1-c1ccc(C(=O)N[C@@H](CC2CCCCC2)C(=O)NCCNc2ccc(OC(F)(F)F)cc2)o1 [Compound 210, (S)-5-(2-Methoxy-phenyl)-furan-2-carboxylic acid {2-cyclohexyl-1-[2-(4-trifluoromethoxy-phenylamino)-ethylcarbamoyl]-ethyl}-amide]"
< 1000,"++ (++, >100)","COc1ccc(NCCNC(=O)C(NC(=O)c2cccc(C)c2)c2ccc(OC)cc2)cc1 (centres unmarked) [Compound 211, N-{(4-Methoxy-phenyl)-[2-(4-methoxy-phenylamino)-ethylcarbamoyl]-methyl}-3-methyl-benzamide]"
< 100,"++ (++, >100)","O=C(N[C@@H](CC1CCCCC1)C(=O)NCCNc1ccc(OC(F)(F)F)cc1)c1ccc(-c2ccccc2F)o1 [Compound 212, (S)-5-(2-Fluoro-phenyl)-furan-2-carboxylic acid {2-cyclohexyl-1-[2-(4-trifluoromethoxy-phenylamino)-ethylcarbamoyl]-ethyl}-amide]"
< 100,"+++ (+++, >1000)","O=C(N[C@@H](CC1CCCCC1)C(=O)NCCNc1ccc(OC(F)(F)F)cc1)c1ccc(-c2ccc(C(F)(F)F)cc2)o1 [Compound 213, (S)-5-(4-Trifluoromethyl-phenyl)-furan-2-carboxylic acid {2-cyclohexyl-1-[2-(4-trifluoromethoxy-phenylamino)-ethylcarbamoyl]-ethyl}-amide]"
< 100,"+++ (+++, >1000)","COc1ccc(NCCNC(=O)C(NC(=O)c2cccc(C)c2)c2ccccc2OCc2ccccc2)cc1 (centres unmarked) [Compound 214, N-{(2-Benzyloxy-phenyl)-[2-(4-methoxy-phenylamino)-ethylcarbamoyl]-methyl}-3-methyl-benzamide]"
< 100,"+++ (+++, >1000)","O=C(N[C@@H](CC1CCCCC1)C(=O)NCCNc1ccc(OC(F)(F)F)cc1)c1ccc(-c2ccc(OC(F)(F)F)cc2)o1 [Compound 215, (S)-5-(4-Trifluoromethoxy-phenyl)-furan-2-carboxylic acid {2-cyclohexyl-1-[2-(4-trifluoromethoxy-phenylamino)-ethylcarbamoyl]-ethyl}-amide]"
< 1000,"+++ (+++, >1000)","COc1ccc(NCCNC(=O)C(NC(=O)c2cccc(C)c2)c2ccccc2Cl)cc1 (centres unmarked) [Compound 216, N-{(2-Chloro-phenyl)-[2-(4-methoxy-phenylamino)-ethylcarbamoyl]-methyl}-3-methyl-benzamide]"
< 1000,"+++ (+++, >1000)","COc1ccc(NCCNC(=O)C(NC(=O)c2cccc(C)c2)c2ccc(OCc3ccccc3)cc2)cc1 (centres unmarked) [Compound 217, N-{(4-Benzyloxy-phenyl)-[2-(4-methoxy-phenylamino)-ethylcarbamoyl]-methyl}-3-methyl-benzamide]"
< 1000,"+++ (+++, >1000)","COc1ccc(NCCNC(=O)C(NC(=O)c2cccc(C)c2)c2cccc3ccccc23)cc1 (centres unmarked) [Compound 218, N-{[2-(4-Methoxy-phenylamino)-ethylcarbamoyl]-naphthalen-1-yl-methyl}-3-methyl-benzamide]"
< 100,"++ (++, >100)","O=C(N[C@@H](CC1CCCCC1)C(=O)NCCNc1ccc(OC(F)(F)F)cc1)c1ccc(-c2ccccc2C(F)(F)F)o1 [Compound 219, (S)-5-(2-Trifluoromethyl-phenyl)-furan-2-carboxylic acid {2-cyclohexyl-1-[2-(4-trifluoromethoxy-phenylamino)-ethylcarbamoyl]-ethyl}-amide]"
< 1000,"++ (++, >100)","COc1ccc(NCCNC(=O)C(NC(=O)c2cccc(C)c2)c2ccccc2C)cc1 (centres unmarked) [Compound 220, N-{[2-(4-Methoxy-phenylamino)-ethylcarbamoyl]-o-tolyl-methyl}-3-methyl-benzamide]"
